One may read the IC50 as the concentration that inhibits the measured activity by half.

In one test the target is T1, PD-1/PD-L1 (Homo sapiens, UniProt Q9NZQ7).
T1 construct: made in house; host or cells: HEK293T
T1 sequence (Q9NZQ7 with tags, fused parts or gaps): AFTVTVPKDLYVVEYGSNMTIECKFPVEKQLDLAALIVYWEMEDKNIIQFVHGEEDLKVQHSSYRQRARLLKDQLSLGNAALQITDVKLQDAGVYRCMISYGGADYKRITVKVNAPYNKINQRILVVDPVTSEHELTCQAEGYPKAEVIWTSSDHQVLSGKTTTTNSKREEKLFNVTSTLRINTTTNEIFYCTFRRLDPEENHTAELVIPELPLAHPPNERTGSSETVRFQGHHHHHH
The test is described as follows: PD-1/PD-L1 Homogenous Time-Resolved Fluorescence (HTRF) binding assay. The note with it: PD-L1-His 10 nM, PD-1-Ig 20 nM; numeric IC50; read-out: Range or IC50. The procedure, abridged: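 Binding measured in dPBS with 0.1% BSA and 0.05% Tween-20, detected by HTRF with europium cryptate anti-Ig (1 nM final) and APC anti-His (20 nM final) added over the binding reaction. Counter-assays used human PD-1-Ig/PD-L2-His (20 and 5 nM) and CD80-His/PD-L1-Ig (100 and 10 nM).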
A general note: In TR-FRET formats the signal depends on donor and acceptor labels being close together.
Consider `Cc1c(COc2cc(OCc3cncc(C#N)c3)c(CNC(CO)(CO)CO)cc2Cl)cccc1-c1cccc(OCCCNC(CO)(CO)CO)c1C` [Example 2281, 5-((4-chloro-2-(((1,3-dihydroxy-2-(hydroxymethyl)propan-2-yl)amino)methyl)-5-((3′-(3-((1,3-dihydroxy-2-(hydroxymethyl)propan-2-yl)amino)propoxy)-2,2′-dimethyl-[1,1′-biphenyl]-3-yl)methoxy)phenoxy)methyl)nicotinonitrile], for which the IC50 stood at 3 nM.

The test is the same for the next values; noted with them: PD-L1-His 10 nM, PD-1-Ig 20 nM; value given as range class; read-out: Range or IC50.
As for `Cc1c(COc2cc(OCc3cncc(C#N)c3)c(CN[C@@](C)(CO)C(=O)O)cc2Cl)cccc1-c1cccc(OCCCN2CCC[C@H](C(=O)O)C2)c1C` [Example 2264, (3S)-1-(3-(3′-((4-(((S)-2-carboxy-1-hydroxypropan-2-ylamino)methyl)-2-chloro-5-((5-cyanopyridin-3-yl)methoxy)phenoxy)methyl)-2,2′-dimethylbiphenyl-3-yloxy)propyl)piperidine-3-carboxylic Acid], the IC50 was in the range of 0.21 to 10 nM. Still for that read-out and setting: in the case of `Cc1c(COc2cc(OCc3cncc(C#N)c3)c(CNC[C@H](O)CO)cc2Cl)cccc1-c1cccc(OCCCNC[C@H](O)CO)c1C` [Example 2265, 5-((4-chloro-2-(((S)-2,3-dihydroxypropylamino)methyl)-5-((3′-(3-((S)-2,3-dihydroxypropylamino)propoxy)-2,2′-dimethylbiphenyl-3-yl)methoxy)phenoxy)methyl)nicotinonitrile] it was 0.21 to 10 nM; in that of `Cc1c(COc2cc(OCc3cncc(C#N)c3)c(CN(C)CCC(N)=O)cc2Cl)cccc1-c1cccc(OCCCN(C)CCC(N)=O)c1C` [Example 2266, 3-((3-(3′-((4-(((3-amino-3-oxopropyl)(methyl)amino)methyl)-2-chloro-5-((5-cyanopyridin-3-yl)methoxy)phenoxy)methyl)-2,2′-dimethylbiphenyl-3-yloxy)propyl)(methyl)amino)propanamide], 0.21 to 10 nM; in that of `CC(=O)N[C@@H]1CCN(CCCOc2cccc(-c3cccc(COc4cc(OCc5cncc(C#N)c5)c(CN5CC[C@@H](NC(C)=O)C5)cc4Cl)c3C)c2C)C1` [Example 2267, N-((3R)-1-(3-(3′-((4-(((R)-3-acetamidopyrrolidin-1-yl)methyl)-2-chloro-5-((5-cyanopyridin-3-yl)methoxy)phenoxy)methyl)-2,2′-dimethylbiphenyl-3-yloxy)propyl)pyrrolidin-3-yl)acetamide], 0.21 to 10 nM. The same measure, in the same setting: for `Cc1c(COc2cc(OCc3cncc(C#N)c3)c(CN3CCCC[C@H]3C(=O)O)cc2Cl)cccc1-c1cccc(OCCCN2CCCC[C@H]2C(=O)O)c1C` [Example 2268, (2S)-1-(3-(3′-((4-(((S)-2-carboxypiperidin-1-yl)methyl)-2-chloro-5-((5-cyanopyridin-3-yl)methoxy)phenoxy)methyl)-2,2′-dimethylbiphenyl-3-yloxy)propyl)piperidine-2-carboxylic Acid] the value was 0.21 to 10 nM. Still for that read-out and setting: for `CNC1CCN(CCCOc2cccc(-c3cccc(COc4cc(OCc5cncc(C#N)c5)c(CN5CCCC[C@H]5C(=O)O)cc4Cl)c3C)c2C)CC1` [Example 2269, (2S)-1-(5-chloro-2-((5-cyanopyridin-3-yl)methoxy)-4-((2,2′-dimethyl-3′-(3-(4-(methylamino)piperidin-1-yl)propoxy)biphenyl-3-yl)methoxy)benzyl)piperidine-2-carboxylic Acid] the value was 0.21 to 10 nM.

Regarding `CC(=O)N[C@@H]1CCN(CCCOc2cccc(-c3cccc(COc4cc(OCc5cncc(C#N)c5)c(CN[C@@](C)(CO)C(=O)O)cc4Cl)c3C)c2C)C1` [Example 2270, (2S)-2-(4-((3′-(3-((R)-3-acetamidopyrrolidin-1-yl)propoxy)-2,2′-dimethylbiphenyl-3-yl)methoxy)-5-chloro-2-((5-cyanopyridin-3-yl)methoxy)benzylamino)-3-hydroxy-2-methylpropanoic Acid], the 50% inhibitory concentration (IC50) is 0.21 to 10 nM. The same measure, in the same setting: in the case of `Cc1c(COc2cc(OCc3cncc(C#N)c3)c(CN(C)C[C@H](O)CO)cc2Cl)cccc1-c1cccc(OCCCN(C)C[C@H](O)CO)c1C` [Example 2271, 5-((4-chloro-2-((((S)-2,3-dihydroxypropyl)(methyl)amino)methyl)-5-((3′-(3-(((S)-2,3-dihydroxypropyl)(methyl)amino)propoxy)-2,2′-dimethylbiphenyl-3-yl)methoxy)phenoxy)methyl)nicotinonitrile] it was 0.21 to 10 nM; in that of `Cc1c(COc2cc(OCc3cncc(C#N)c3)c(CN[C@@](C)(CO)C(=O)O)cc2Cl)cccc1-c1cccc(OCCCN2CCCCC2)c1C` [Example 2272, (S)-2-((5-chloro-2-((5-cyanopyridin-3-yl)methoxy)-4-((2,2′-dimethyl-3′-(3-(piperidin-1-yl)propoxy)-[1,1′-biphenyl]-3-yl)methoxy)benzyl)amino)-3-hydroxy-2-methylpropanoic Acid], 0.21 to 10 nM. In the case of `Cc1c(COc2cc(OCc3cncc(C#N)c3)c(CN[C@@](C)(CO)C(=O)O)cc2Cl)cccc1-c1cccc(OCCCN2CCOCC2)c1C` [Example 2273, (S)-2-((5-chloro-2-((5-cyanopyridin-3-yl)methoxy)-4-((2,2′-dimethyl-3′-(3-morpholinopropoxy)-[1,1′-biphenyl]-3-yl)methoxy)benzyl)amino)-3-hydroxy-2-methylpropanoic Acid], the IC50 lay within 0.21 to 10 nM. On the same count and under the same terms, in the case of `Cc1c(COc2cc(OCc3cncc(C#N)c3)c(CN[C@@](C)(CO)C(=O)O)cc2Cl)cccc1-c1cccc(OCCCN2CCC(NC(=O)C(F)(F)F)C2)c1C` (stereo partly drawn) [Example 2274, (2S)-2-((5-chloro-2-((5-cyanopyridin-3-yl)methoxy)-4-((2,2′-dimethyl-3′-(3-(3-(2,2,2-trifluoroacetamido)pyrrolidin-1-yl)propoxy)-[1,1′-biphenyl]-3-yl)methoxy)benzyl)amino)-3-hydroxy-2-methylpropanoic Acid] it was 0.21 to 10 nM. Still for that read-out and setting: in the case of `Cc1c(COc2cc(OCc3cncc(C#N)c3)c(CN[C@@](C)(CO)C(=O)O)cc2Cl)cccc1-c1cccc(OCCCN2CCC(CO)CC2)c1C` [Example 2275, (S)-2-((5-chloro-2-((5-cyanopyridin-3-yl)methoxy)-4-((3′-(3-(4-(hydroxymethyl)piperidin-1-yl)propoxy)-2,2′-dimethyl-[1,1′-biphenyl]-3-yl)methoxy)benzyl)amino)-3-hydroxy-2-methylpropanoic Acid] it was 0.21 to 10 nM.

As for `CC(=O)N[C@@H]1CCN(CCCOc2cccc(-c3cccc(COc4cc(OCc5cncc(C#N)c5)c(CO)cc4Cl)c3C)c2C)C1` [Example 2276, N-((3R)-1-(3-(3′-((2-chloro-5-((5-cyanopyridin-3-yl)methoxy)-4-(hydroxymethyl)phenoxy)methyl)-2,2′-dimethylbiphenyl-3-yloxy)propyl)pyrrolidin-3-yl)acetamide], the IC50 is 0.21 to 10 nM.

As to `CO[C@@H]1CCN(CCCOc2cccc(-c3cccc(COc4cc(OCc5cncc(C#N)c5)c(CO)cc4Cl)c3C)c2C)C1` [Example 2277, 5-((4-chloro-2-(hydroxymethyl)-5-((3′-(3-((R)-3-methoxypyrrolidin-1-yl)propoxy)-2,2′-dimethylbiphenyl-3-yl)methoxy)phenoxy)methyl)nicotinonitrile], the IC50 lay in the range of 0.21 to 10 nM. Same read-out and setting: for `CCC(CO)(CO)NCCCOc1cccc(-c2cccc(COc3cc(OCc4cncc(C#N)c4)c(CNC(CC)(CO)CO)cc3Cl)c2C)c1C` [Example 2278, 5-((4-chloro-2-(((1-hydroxy-2-(hydroxymethyl)butan-2-yl)amino)methyl)-5-((3′-(3-((1-hydroxy-2-(hydroxymethyl)butan-2-yl)amino)propoxy)-2,2′-dimethyl-[1,1′-biphenyl]-3-yl)methoxy)phenoxy)methyl)nicotinonitrile] the value was 0.21 to 10 nM; for `CCC(CO)(CO)NCc1cc(Cl)c(OCc2cccc(-c3cccc(OCCCNC[C@H](O)CO)c3C)c2C)cc1OCc1cncc(C#N)c1` [Example 2279, (S)-5-((4-chloro-5-((3′-(3-((2,3-dihydroxypropyl)amino)propoxy)-2,2′-dimethyl-[1,1′-biphenyl]-3-yl)methoxy)-2-(((1-hydroxy-2-(hydroxymethyl)butan-2-yl)amino)methyl)phenoxy)methyl)nicotinonitrile], 0.21 to 10 nM. Still for that read-out and setting: for `CCC(CO)(CO)NCc1cc(Cl)c(OCc2cccc(-c3cccc(OCCCN4CC[C@@H](O)C4)c3C)c2C)cc1OCc1cncc(C#N)c1` [Example 2280, (R)-5-((4-chloro-2-(((1-hydroxy-2-(hydroxymethyl)butan-2-yl)amino)methyl)-5-((3′-(3-(3-hydroxypyrrolidin-1-yl)propoxy)-2,2′-dimethyl-[1,1′-biphenyl]-3-yl)methoxy)phenoxy)methyl)nicotinonitrile] the value was 0.21 to 10 nM; for `Cc1c(COc2cc(OCc3cncc(C#N)c3)c(CNC(CO)(CO)CO)cc2Cl)cccc1-c1cccc(OCCCNC[C@H](O)CO)c1C` [Example 2282, (S)-5-((4-chloro-2-(((1,3-dihydroxy-2-(hydroxymethyl)propan-2-yl)amino)methyl)-5-((3′-(3-((2,3-dihydroxypropyl)amino)propoxy)-2,2′-dimethyl-[1,1′-biphenyl]-3-yl)methoxy)phenoxy)methyl)nicotinonitrile], 0.21 to 10 nM. Consider `CCC(CO)(CO)NCc1cc(Cl)c(OCc2cccc(-c3cccc(OCCCN4CCCC(CO)C4)c3C)c2C)cc1OCc1cncc(C#N)c1` (centres unmarked) [Example 2283, 5-((4-chloro-2-(((1-hydroxy-2-(hydroxymethyl)butan-2-yl)amino)methyl)-5-((3′-(3-(3-(hydroxymethyl)piperidin-1-yl)propoxy)-2,2′-dimethyl-[1,1′-biphenyl]-3-yl)methoxy)phenoxy)methyl)nicotinonitrile], for which the IC50 lay within 0.21 to 10 nM.

These data come from patent US10745382B2 (BRISTOL-MYERS SQUIBB COMPANY, priority 2015, dated 2020).
